From publication PMC12117998, “First Steps toward the Design of Peptides that Influence the Intracellular Palmitoylation Machinery” (Chembiochem, 2025)
No end group written: not given here.

Tests used:
HeLa cells [1] = test: Cell viability assay (resazurin); assay type: cell-based; conditions: 24 h; for cytotoxicity (cell viability): CF‐labeled peptides, n = 3 (Figure 3A); for concentration up to which peptide is not toxic (cell viability): unlabeled peptides in serum-free medium, untreated control = 100%, n = 3 (Figure 2A)
Procedure: (§1) HeLa (13,000), MDA‐MB‐231 (26,000), HFF‐1 (16,000) cells, mEGFP‐HRas (18,000), and SW480 and SW620 (15,000) were seeded into a 96‐well plate. Cells were treated with suitable peptide concentrations diluted in the corresponding serum‐free culture medium. After 24 h incubation under standard growth conditions, the cells were washed once with PBS. The positive control was treated for 10 min with 70% EtOH. To test the viability, cells were treated with a resazurin solution (In Vitro Toxicology Assay Kit, resazurin based, Sigma) and incubated for a further 1–2 h. The product resorufin was measured at 595 nm (λex = 550 nm) on an infinite M200 plate reader (Tecan) and normalized to the untreated negative control cells.

MDA‐MB‐231 [2] = test: Cell viability assay (resazurin); assay type: cell-based; conditions: MDA‐MB‐231, 24 h, CF‐labeled peptides, n = 3 (Figure 3B)
Procedure: as §1

HFF‐1 cells [3] = test: Cell viability assay (resazurin); assay type: cell-based, human; conditions: HFF‐1, 24 h, CF‐labeled peptides, n = 3 (Figure 3C)
Procedure: as §1

HeLa cells [4] = test: Cellular uptake by flow cytometry; assay type: cell-based; conditions: 30 min, serum-free medium, 37 °C, flow cytometry
Procedure: (§2) HeLa (90,000), MDA‐MB‐231 (120,000), and HFF‐1 (125,000) cells were seeded into a 24‐well plate. Cells were treated with the desired concentration of CF‐labeled peptide diluted in the appropriate serum‐free medium for 30 min at 37 °C and 5% CO2. Afterward, cells were washed once with PBS, detached from the plate using indicator‐free trypsin/EDTA and resuspended in indicator‐free culture medium. The cell mixture was measured on the Guava easyCyte flow cytometer (Merck) using the GRN‐B (520/30) detector.
CMA was synthesized and kindly provided by Azizi et al.^[ [33] ^] Cells were either treated with 20 μM CMA diluted in serum‐free media or 0.1% DMSO diluted in serum‐free media for 6 h at 37 °C with 5% CO2. Next, cells were washed once with serum‐free medium and 5 μM CF‐labeled peptides diluted in serum‐free medium were incubated for 30 min. Control cells were only treated with dimethylsulfoxide (DMSO) or 20 μM CMA.
For the preincubation assay, cells were either treated with 5 μM DC‐2 diluted in serum‐free medium or only serum‐free medium for 30 min at 37 °C and 5% CO2. Afterward, cells were washed once with serum‐free medium and treated with 5 μM CF‐labeled DC‐2 for 30 min at 37 °C and 5% CO2.
To block cell surface thiols, cells were incubated with either serum‐free medium or 1.2 mM 5,5′‐dithiobis‐(2‐nitrobenzoic acid) (Ellman's reagent, DTNB) diluted in serum‐free medium for 5 min. Next, untreated cells were treated with 1 μM of CF‐labeled DC‐2 or DC‐2dis diluted in serum‐free medium and DTNB‐pretreated cells with 1 μM of CF‐labeled DC‐2 or DC‐2dis and 1.2 mM DTNB in serum‐free medium for 30 min at 37 °C and 5% CO2 as described by Aubry et al.^[ [47] ^]

human 6His‐ZDHHC7 = biological target: T1, human 6His‐ZDHHC7 (Homo sapiens, UniProt Q9NXF8); test: In vitro palmitoylation assay (LC‐MS); assay type: biochemical; conditions: 50 μM CF‐labeled peptide, 37 °C, LC‐MS (Figure 4); for palmitoylation in presence of ZDHHC7: 100 nM ZDHHC7, 100 μM palmitoyl‐CoA, pH 7.0, 2 h; for palmitoylation in absence of ZDHHC7 (auto‐palmitoylation): 100 μM palmitoyl‐CoA, no ZDHHC7, pH 7.0, 2 h
T1 construct: 6His; purchased Proteintech
T1 sequence (Q9NXF8 1-308): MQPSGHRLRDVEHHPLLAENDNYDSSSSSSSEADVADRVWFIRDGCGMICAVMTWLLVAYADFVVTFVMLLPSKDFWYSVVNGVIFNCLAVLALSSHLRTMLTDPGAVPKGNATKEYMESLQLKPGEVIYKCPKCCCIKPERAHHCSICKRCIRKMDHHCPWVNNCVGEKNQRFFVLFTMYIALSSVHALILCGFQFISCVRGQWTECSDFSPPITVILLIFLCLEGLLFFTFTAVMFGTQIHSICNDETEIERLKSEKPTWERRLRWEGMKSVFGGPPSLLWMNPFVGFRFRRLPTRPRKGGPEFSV
Procedure: The 50 μM CF‐labeled peptides were incubated with 100 nM human 6His‐ZDHHC7 (Proteintech) and 100 μM palmitoyl‐CoA (Santa Cruz Biotechnology) in reaction buffer (50 mM HEPES, 150 mM NaCl, 1 mM EDTA, 1 mM (tris(2‐carboxyethyl)phosphine) (TCEP), 0.3 mM DDM, pH 7.0) for 2 h at 37 °C. Control reactions without ZDHHC7 or palm‐CoA were incubated with the appropriate volume of reaction buffer. Afterward, the reaction was centrifuged for 5 min at 13000 rpm. The precipitate was dissolved in DMSO/ACN (3:2, v/v). To enrich the peptide from the supernatant, C8 ZipTips were used. All samples were analyzed on the LC MS‐8060 triple quadrupole ESI‐MS (Shimadzu). The fluorescence intensity (λex = 493 nm, λem = 517 nm) of the samples was measured on an EC 160/2 NUCLEODUR 300‐5 C18 ec column using linear gradients from 20% to 70 % ACN in ddH2O + 0.1% FA over 7 min.

MCF‐10 A breast spheroid = test: Confocal time‐lapse imaging of spheroids; assay type: cell-based, human; conditions: 10‐day‐old MCF‐10 A spheroids, 10 μM CF‐labeled peptide, imaged every 45 s for 20 min, n ≥ 2 (Figure 7)
Procedure: Spheroids from single MCF10‐A cells were generated for 10 days as described in ref. [66]. For further analyses, spheroids were isolated from EHS matrix through incubation in 2 mL ice‐cold cell recovery solution (BD Biosciences) for 30 min (4 °C). Next, spheroids were washed with fresh EGF‐free medium and individually picked under a stereo microscope for seeding onto 35 mm cell culture dishes with microscopic glass bottoms (Cover Slip, 24 × 24 mm, #1.5 HP, Menzel‐Gläser). Spheroids adhered to glass substrates for 15 min (RT) and were subsequently covered with 0.9 mL fresh EGF‐free growth medium.
Live‐cell imaging was performed at 37 °C and 5% CO2 (cell incubator XL, Zeiss, Germany) with an inverse confocal laser scanning microscope (LSM880 with Airyscan detector) that used a 40x LD C‐Apochromat water immersion objective (NA 1.1, Zeiss). Before addition of peptides, control images were taken. Subsequently, peptide was added to a final concentration of 10 μM and spheroids immediately imaged every 45 s for 20 min. The observed plane was at the equatorial plane of a spheroid, where the diameter was largest. Images were taken with Fast Airyscan and subsequent processing using the ZEN 2.3 black software (Zeiss). Z‐stacks were taken right after the time series in 1 μm steps with the same microscopic settings.

MDA‐MB‐231 [5] = test: Cellular uptake by flow cytometry; assay type: cell-based; conditions: MDA‐MB‐231, 30 min, 5 μM CF‐labeled peptides, serum-free medium, 37 °C, n ≥ 3 (Figure 3E)
Procedure: as §2

HFF‐1 cells [6] = test: Cellular uptake by flow cytometry; assay type: cell-based, human; conditions: HFF‐1, 30 min, 5 μM CF‐labeled peptides, serum-free medium, 37 °C, n ≥ 3 (Figure 3F)
Procedure: as §2

HeLa cells [7] = test: Live‐cell fluorescence imaging of peptide uptake; assay type: cell-based; conditions: 30 min, 5 μM CF‐labeled peptides, confocal laser scanning microscopy (Figure 3G)
Procedure: HeLa (40,000), MDA‐MB‐231 (30,000), or HFF1 (55,000) cells were seeded into an 8‐well ibidi. Cells were treated for 30 min with 5 μM of CF‐labeled peptide diluted in the appropriate serum‐free media. The cell nuclei were stained with the Hoechst 33342 nuclear dye for the last 10 min of the total incubation time. Afterward, cells were washed three to four times using serum‐free medium and finally, medium containing FBS was added for the microscopy. Live fluorescence microscopy analyses were performed on the LSM 980 with Airyscan 2 Inverse Confocal Laser Scanning Microscope (Carl Zeiss) on a 63X Plan‐Apochromat oil objective (NA 1.4, Zeiss) at 37 °C and 5% CO2 or on the BZ‐X810 (Keyence) using a 60X Plan‐Apochromat oil objective (NA 1.4, Keyence). Images were cropped and processed using Fiji.
Hela cells (15,000) were seeded into a 96-well plate. Cells were treated with suitable peptide concentrations diluted in the corresponding serum-free culture medium. After 1 h peptide incubation under standard growth conditions, the positive control was either directly treated with lysis solution or the supernatant was exchanged for serum-free culture medium and the plate was incubated for further 5 h under growing conditions. The CytoTox-ONE™ Reagent was added and incubated at RT for 10 minutes. Finally, the Stop Solution was added and the fluorescence was measured at 595 nm (λex = 550 nm) on an infinite M200 plate reader (Tecan) and normalized to the positive control cells.
Red blood cells (RBCs) were washed three times in PBS by centrifug ing at 4 °C and 3,000 x g for 5 min and diluted to 5% in PBS. The desired peptide concentrations diluted in PBS were added into a 96-well plate. Next, 5% RBCs in PBS were added into the wells and incubated for 24 h at 37 °C and 5% CO2. As a positive control, RBCs were mixed with 10% Triton X-100 in PBS. […] Lastly, the absorption (λ=560 nm) was measured on the infinite M200 plate reader (Tecan). For the evaluation, the measured absorption of the Triton-X-100 treatment was set to a hemolysis rate […]

[8] = 5 μM CF‐labeled peptides, n ≥ 3 (Figure 3D, 5C)
[9] = 10 μM CF‐labeled peptides, n = 3 (Figure 2B)

Substance | cytotoxicity (cell viability) (HeLa cells [1]) | concentration up to which peptide is not toxic (cell viability) (HeLa cells [1]) [µM] | cytotoxicity (cell viability) (MDA‐MB‐231 [2]) | cytotoxicity (cell viability) (HFF‐1 cells [3]) | cellular uptake (in words) (HeLa cells [4]; [8]) | cellular uptake (in words) (HeLa cells [4]; [9]) | palmitoylation in presence of ZDHHC7 (human 6His‐ZDHHC7) | palmitoylation in absence of ZDHHC7 (auto‐palmitoylation) (human 6His‐ZDHHC7) | infiltration of basement membrane (BM)‐covered spheroids (MCF‐10 A breast spheroid) | cellular uptake (in words) (MDA‐MB‐231 [5]) | cellular uptake (in words) (HFF‐1 cells [6]) | intracellular uptake pattern (HeLa cells [7])
GLRKRLRKFRNK-NH2 [sC18*, cell‐penetrating peptide (CPP) sC18*, origin CAP18, control peptide, reference compound] | not toxic | > 100 | not toxic | not toxic | – | – | – | – | – | – | – | –
GLRKRLRKFRNKEFDHHCPW-NH2 [DC‐4, CPP sC18* fused to the DHHC motif derived from ZDHHC5] | – | – | – | – | overall weaker uptake | internalized to less extent | only a minor peak of palmitoylated DC‐4 | no auto‐palmitoylation | – | – | – | –
GLRKRLRKFRNKKMDHHAPW-NH2 [DA‐1, control peptide in which the cysteine of the DHHC motif of DC‐2 was exchanged by an alanine] | not toxic | > 100 | not toxic | not toxic | – | – | – | – | did not further enter cells of the spheroid | – | – | –
GLRKRLRKFRNKRMDHHCPW-NH2 [DC‐11, CPP sC18* fused to the DHHC motif derived from ZDHHC21] | – | – | – | – | internalized to a higher extent compared to DC‐4 | highest uptake | palmitoylated | auto‐palmitoylation | – | internalized to a higher extent compared to DC‐4 | internalized to a higher extent compared to DC‐4 | diffuse cytosolic pattern
